From patent publication US20080153908A1, “Method of Treating Mucin Deficiency with an Active Pharmaceutical and Related Composition” (priority 2006, published 2008)

Experiments:
[1] = test system: rat colon cells; conditions: isolated vascularly perfused rat colon; cited from earlier work
[2] = test system: colonic mucin production; conditions: about 0.1 millimolar sodium butyrate; tissue harvested from colonic cancer patients; cited from earlier work
[3] = test system: mucin content of tear film; assay: Stimulation of mucin production: tear film mucin content in patients with mucin deficiency; format: in vivo, human; conditions: 0.5 wt. % solution in artificial tear solution, four-times a day for four days; control receives artificial tear solution
Protocol: A 0.5 wt. % solution of sodium butyrate in artificial tear solution is administered to one of a […] that suffer from mucin deficiency. The patients receiving butyrate drops belong to the study group. The patients in the control group receive artificial tear solution. Both groups receive treatment four-times a day for four days. Following treatment, tear film samples are collected and tested to quantify mucin content.

**Q.** With `CCC(=O)O` [propionate] as the compound, how does the “stimulation of mucin secretion of rat colon cells” value [1] read?
**A.** can stimulate the mucin secretion

**Q.** With `CC(=O)O` [acetate] as the compound, how does the “stimulation of mucin secretion of rat colon cells” value [1] read?
**A.** can stimulate the mucin secretion

**Q.** For `CCCC(=O)[O-].[Na+]` [sodium butyrate], which “increase in colonic mucin production compared to a control group” value [2] is on record?
**A.** almost five fold increase

**Q.** What about the “concentration of mucin in tear film samples versus control group” value [3] of the same compound?
**A.** higher concentration of mucin
